From article PMC12102759 (Protein Science : A Publication of the Protein Society, 2025)

target: TLN1 PTB (Homo sapiens, UniProt Q9Y490); assay: biochemical; type: binding; settings: not given
Sequence (Q9Y490 309-401): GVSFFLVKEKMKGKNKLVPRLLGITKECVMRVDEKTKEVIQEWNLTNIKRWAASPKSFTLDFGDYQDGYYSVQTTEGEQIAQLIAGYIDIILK

For Ac-LADLIFTDSKLYIPLE-NH2 [TPTE2 wt], the IC50 was 15 µM.

In order of falling Kd:
1. Ac-LADLIFTDSALYIPLE-NH2 [TPTE2_K101A]  15 µM
2. Ac-LADLIFTDSKLYIPLE-NH2 [TPTE2 wt]  4.5 µM
3. Ac-LADLIFTDSKLYLPLE-NH2 [TPTE2_I104L]  4.5 µM
4. Ac-LADLIWTDSKLYIPLE-NH2 [TPTE2_92‐107 F97W]  0.1 µM

In the case of “Ac-LADLIWTDSKLYIPLE-NH2 [TPTE2_92‐107 F97W]”, the “fold higher affinity than wild‐type TPTE2_92‐107” value is reported as 44 fold.

target: G3BP1 NTF2 (Homo sapiens, UniProt Q13283); assay: biochemical; type: binding; settings: not given
Sequence (Q13283 1-139): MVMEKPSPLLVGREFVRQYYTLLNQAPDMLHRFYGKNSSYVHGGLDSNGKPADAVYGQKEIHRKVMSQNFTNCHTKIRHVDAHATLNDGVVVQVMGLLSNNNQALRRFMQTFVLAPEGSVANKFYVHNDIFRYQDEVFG

In order of falling IC50:
1. Ac-APRIEFGGPSDSTGSY-NH2 [N T15E]  49 µM
2. Ac-APRITFGGFSDSTGSY-NH2 [N P20F]  44 µM
3. Ac-AERITFGGPSDSTGSY-NH2 [N P13E]  22 µM
4. Ac-APRITFGGPYDSTGSY-NH2 [N S21Y]  16 µM
5. Ac-APLITFGGPSDSTGSY-NH2 [N R14L]  11 µM
6. Ac-DPRITFGGPSDSTGSY-NH2 [N A12D]  9.9 µM
7. Ac-APRITFGAPSDSTGSY-NH2 [N G19A]  5.2 µM

In the case of Ac-APRIEFGGPSDSTGSY-NH2 [N12–26 T16E], the “effect of mutation on affinity, in words” value is reported as “sevenfold loss of affinity”.

same assay, conditions: KD

In order of rising Kd:
1. Ac-APRITFGAPSDSTGSY-NH2 [N G19A]  1.1 µM
2. Ac-APRITFGGPSDSTGSY-NH2 [N12–26]  2 µM
3. Ac-APRITFGGPSDSTGSY-NH2 [N wt]  2.3 µM
4. Ac-DPRITFGGPSDSTGSY-NH2 [N A12D]  2.7 µM
5. Ac-APLITFGGPSDSTGSY-NH2 [N R14L]  3 µM
6. Ac-APRITFGGPYDSTGSY-NH2 [N S21Y]  4.7 µM
7. Ac-AERITFGGPSDSTGSY-NH2 [N P13E]  6.8 µM
8. Ac-APRITFGGFSDSTGSY-NH2 [N P20F]  14 µM
9. Ac-APRIEFGGPSDSTGSY-NH2 [N12–26 T16E]  16 µM

target: NSP3 ADRP (Severe acute respiratory syndrome coronavirus 2, UniProt P0DTC1); assay: biochemical; type: binding, SARS‐CoV‐2; settings: not given

In order of rising IC50:
1. Ac-STYLHPLSELLGIPLD-NH2 [MBOAT1 wt]  175 µM
2. Ac-STYLHPLSELFGIPLD-NH2 [MBOAT1 L27F]  255 µM
3. Ac-STYLHPLSELLGMPLD-NH2 [MBOAT1 I29M]  268 µM
4. Ac-STYLHPLSELLGIPFD-NH2 [MBOAT1 L31F]  285 µM
5. Ac-STYLHPLSELLTIPLD-NH2 [MBOAT1 G28T]  311 µM
6. Ac-STYIHPLSELLGIPLD-NH2 [MBOAT1 L20I]  429 µM
7. Ac-STALHPLSELLGIPLDY-NH2 [MBOAT1 Y19A]  452 µM

In order of falling Kd:
1. Ac-STALHPLSELLGIPLDY-NH2 [MBOAT1 Y19A]  161 µM
2. Ac-STYIHPLSELLGIPLD-NH2 [MBOAT1 L20I]  152 µM
3. Ac-STYLHPLSELLTIPLD-NH2 [MBOAT1 G28T]  104 µM
4. Ac-STYLHPLSELLGIPFD-NH2 [MBOAT1 L31F]  93 µM
5. Ac-STYLHPLSELLGMPLD-NH2 [MBOAT1 I29M]  86.5 µM
6. Ac-STYLHPLSELFGIPLD-NH2 [MBOAT1 L27F]  82 µM

target: NSP3 UBl1 (Severe acute respiratory syndrome coronavirus 2, UniProt P0DTC1); assay: biochemical; type: binding, SARS‐CoV‐2; settings: not given

In order of rising IC50:
1. Ac-PSDEQALLQQLYLALR-NH2 [NCOA2 G1077Q D1081Q]  66.2 µM
2. Ac-PSDEQALLDQLYLALR-NH2 [NCOA2 G1077Q]  98 µM
3. Ac-PSDEGALLQQLYLALR-NH2 [NCOA2 D1081Q]  108 µM
4. Ac-PSDEGALLDQLYLALR-NH2 [NCOA2 wt]  139 µM

In order of rising Kd:
1. Ac-PSDEQALLQQLYLALR-NH2 [NCOA2 G1077Q D1081Q]  5.1 µM
2. Ac-PSDEQALLDQLYLALR-NH2 [NCOA2 G1077Q]  19 µM
3. Ac-PSDEGALLQQLYLALR-NH2 [NCOA2 D1081Q]  24 µM
4. Ac-PSDEGALLDQLYLALR-NH2 [NCOA2 wt]  39 µM

target: NSP3 SUD-M (Severe acute respiratory syndrome coronavirus 2, UniProt P0DTC1); assay: biochemical; type: binding, SARS‐CoV‐2; settings: not given

In order of rising IC50:
1. Ac-QFTEEELHFVLYGVTPY-NH2 [PRDM14 D201E]  90 µM
2. Ac-QFTEEDLMFVLYGVTPY-NH2 [PRDM14 H203M]  124 µM
3. Ac-QFTEEDLHFVLEGVTPY-NH2 [PRDM14 Y207E]  243 µM
4. Ac-QFTEEDLHFVLYGVTPY-NH2 [PRDM14 wt]  400 µM
5. Ac-QFTEEALHFVLYGVTPY-NH2 [PRDM14 D201A]  1050 µM
6. Ac-QFTEENLHFVLYGVTPY-NH2 [PRDM14 D201N]  1430 µM

In order of rising Kd:
1. Ac-QFTEEELHFVLYGVTPY-NH2 [PRDM14 D201E]  5.4 µM
2. Ac-QFTEEDLMFVLYGVTPY-NH2 [PRDM14 H203M]  13 µM
3. Ac-QFTEEDLHFVLEGVTPY-NH2 [PRDM14 Y207E]  40 µM
4. Ac-QFTEEDLHFVLYGVTPY-NH2 [PRDM14 wt]  74 µM
5. Ac-QFTEEALHFVLYGVTPY-NH2 [PRDM14 D201A]  226 µM
6. Ac-QFTEENLHFVLYGVTPY-NH2 [PRDM14 D201N]  313 µM

For Ac-QFTEEELHFVLYGVTPY-NH2 [PRDM14 D201E], the “fold increase in affinity compared to wild‐type PRDM14 peptide” value was 14 fold.

target: T1, NSP9 (Severe acute respiratory syndrome coronavirus 2, UniProt P0DTC1); assay: biochemical; type: binding, SARS‐CoV‐2; settings: not given

In order of rising IC50:
1. Ac-QGVWLGAVEPWEPLLD-NH2 [NOTCH4 A1608V P1613V]  33.4 µM
2. Ac-QGVWLGAPEPWEPLLD-NH2 [NOTCH4 A1608V]  59 µM
3. Ac-QGAWLGAVEPWEPLLD-NH2 [NOTCH4 P1613V]  105 µM
4. Ac-QGAWLGAPEPWFPLLD-NH2 [NOTCH4 E1617F]  109 µM
5. Ac-QGAWLGIPEPWEPLLD-NH2 [NOTCH4 A1612I]  149 µM
6. Ac-QGAWLGAPEYWEPLLD-NH2 [NOTCH4 P1615Y]  152 µM
7. Ac-QGAWLGAPEPYEPLLD-NH2 [NOTCH4 W1616Y]  167 µM
8. Ac-QGAWLGAPVPWEPLLD-NH2 [NOTCH4 E1614V]  178 µM
9. Ac-QGAWLGAPEPWEPLLD-NH2 [NOTCH4 wt]  205 µM
10. Ac-QGSWLGAPEPWEPLLD-NH2 [NOTCH4 A1608S]  583 µM

In order of rising Kd:
1. Ac-QGVWLGAVEPWEPLLD-NH2 [NOTCH4 A1608V P1613V]  5.9 µM
2. Ac-QGVWLGAPEPWEPLLD-NH2 [NOTCH4 A1608V]  16 µM
3. Ac-QGAWLGAVEPWEPLLD-NH2 [NOTCH4 P1613V]  33 µM
4. Ac-QGAWLGAPEPWFPLLD-NH2 [NOTCH4 E1617F]  35 µM
5. Ac-QGAWLGIPEPWEPLLD-NH2 [NOTCH4 A1612I]  50 µM
6. Ac-QGAWLGAPEYWEPLLD-NH2 [NOTCH4 P1615Y]  51 µM
7. Ac-QGAWLGAPEPYEPLLD-NH2 [NOTCH4 W1616Y]  57 µM
8. Ac-QGAWLGAPEPWEPLLD-NH2 [NOTCH4 wt]  72 µM
9. Ac-QGAWLDAPEPWEPLLD-NH2 [NOTCH4 G1611D]  160 µM
10. Ac-QGSWLGAPEPWEPLLD-NH2 [NOTCH4 A1608S]  216 µM
11. Ac-QGAWLPAPEPWEPLLD-NH2 [NOTCH4 G1611P]  410 µM

target: T1, NSP9; assay: biochemical; type: binding, SARS‐CoV‐2; settings: not given; remark: another data set of the same source

Work on CC[C@H](C)[C@H](NC(=O)CNC(=O)[C@H](CCC(=O)O)NC(=O)[C@H](C)NC(=S)Nc1ccc2c(c1)C(=O)OC21c2ccc(O)cc2Oc2cc(O)ccc21)C(=O)N[C@@H](CC(=O)O)C(=O)N[C@H](C(=O)NCC(=O)N[C@@H](CCC(=O)O)C(=O)N[C@@H](CCSC)C(=O)N1CCC[C@H]1C(=O)N[C@@H](CO)C(=O)N[C@@H](Cc1ccc(O)cc1)C(=O)N[C@@H](CC(=O)O)C(=O)N[C@@H](CC(C)C)C(=O)N[C@H](C(=O)N[C@@H](CC(C)C)C(=O)O)C(C)C)[C@@H](C)CC yielded a Kd of 15.5 µM.

tested on: G3BP1 NFT2; assay: not given; type: binding, human; settings: library DMS-BM; bait G3BP1 NFT2; prey CAPRIN1; AQMQGPYNFIQDSM(averaged): mean of the two overlapping peptides over the shared positions

In order of falling “DMS position-specific score (PSSM value) per amino-acid substitution, averaged” value:
1. AQMQGPYNFIQDSM(averaged) I10I  0.4804
2. AQMQGPYNFIQDSM(averaged) M14F (AQMQGPYNFIQDSF)  0.1772
3. AQMQGPYNFIQDSM(averaged) M3M  0.1084
4. AQMQGPYNFIQDSM(averaged) M3D (AQDQGPYNFIQDSM)  0.0976
5. AQMQGPYNFIQDSM(averaged) P6A (AQMQGAYNFIQDSM)  0.08584
6. AQMQGPYNFIQDSM(averaged) M14Q (AQMQGPYNFIQDSQ)  0.06683
7. AQMQGPYNFIQDSM(averaged) A1V (VQMQGPYNFIQDSM)  0.05956
8. AQMQGPYNFIQDSM(averaged) N8D (AQMQGPYDFIQDSM)  0.05276
9. AQMQGPYNFIQDSM(averaged) A1F (FQMQGPYNFIQDSM)  0.03963
10. AQMQGPYNFIQDSM(averaged) F9D (AQMQGPYNDIQDSM)  0.037
11. AQMQGPYNFIQDSM(averaged) P6N (AQMQGNYNFIQDSM)  0.03046
12. AQMQGPYNFIQDSM(averaged) S13N (AQMQGPYNFIQDNM)  0.02537
13. AQMQGPYNFIQDSM(averaged) P6R (AQMQGRYNFIQDSM)  0.01834
14. AQMQGPYNFIQDSM(averaged) M14T (AQMQGPYNFIQDST)  0.005834
15. AQMQGPYNFIQDSM(averaged) A1T (TQMQGPYNFIQDSM)  0.005821
16. AQMQGPYNFIQDSM(averaged) D12V (AQMQGPYNFIQVSM)  0.005056
17. AQMQGPYNFIQDSM(averaged) S13R (AQMQGPYNFIQDRM)  0.001343
18. AQMQGPYNFIQDSM(averaged) Q2G (AGMQGPYNFIQDSM)  0.001251
19. AQMQGPYNFIQDSM(averaged) F9V (AQMQGPYNVIQDSM)  0.0005113
20. AQMQGPYNFIQDSM(averaged) G5R (AQMQRPYNFIQDSM)  0.0001509
21. AQMQGPYNFIQDSM(averaged) Y7E (AQMQGPENFIQDSM)  0.0001172
22. AQMQGPYNFIQDSM(averaged) Y7D (AQMQGPDNFIQDSM)  0

tested on: USP7 MATH; assay: not given; type: binding, human; settings: DMS-CoV library, bait USP7 MATH, prey N, parental peptide SKQLQQSMSSADSTQA, label suffix = wt residue, displayed residue (same letter = wild type), x = no value

In order of rising “DMS PSSM value (matrix of displayed amino acid x peptide position)” value:
1. SKQLQQSMSSADSTQA K2V (SVQLQQSMSSADSTQA)  1
2. SKQLQQSMSSADSTQA S10S  1
3. SKQLQQSMSSADSTQA Q15Q  1
4. SKQLQQSMSSADSTQA Q5Q  1
5. SKQLQQSMSSADSTQA S1S  1
6. SKQLQQSMSSADSTQA T14V (SKQLQQSMSSADSVQA)  1
7. SKQLQQSMSSADSTQA A11A  1
8. SKQLQQSMSSADSTQA D12D  1
9. SKQLQQSMSSADSTQA S9S  1
10. SKQLQQSMSSADSTQA M8M  1
11. SKQLQQSMSSADSTQA S7S  1
12. SKQLQQSMSSADSTQA Q6Q  1
13. SKQLQQSMSSADSTQA S13S  1
14. SKQLQQSMSSADSTQA Q3Q  1
